In patent US9221834B2 (Merck Sharp & Dohme Corp., priority 2010, dated 2015):

Target: T1, recombinant CETP (rCETP) (Homo sapiens, UniProt P11597)
T1 sequence (P11597 18-493): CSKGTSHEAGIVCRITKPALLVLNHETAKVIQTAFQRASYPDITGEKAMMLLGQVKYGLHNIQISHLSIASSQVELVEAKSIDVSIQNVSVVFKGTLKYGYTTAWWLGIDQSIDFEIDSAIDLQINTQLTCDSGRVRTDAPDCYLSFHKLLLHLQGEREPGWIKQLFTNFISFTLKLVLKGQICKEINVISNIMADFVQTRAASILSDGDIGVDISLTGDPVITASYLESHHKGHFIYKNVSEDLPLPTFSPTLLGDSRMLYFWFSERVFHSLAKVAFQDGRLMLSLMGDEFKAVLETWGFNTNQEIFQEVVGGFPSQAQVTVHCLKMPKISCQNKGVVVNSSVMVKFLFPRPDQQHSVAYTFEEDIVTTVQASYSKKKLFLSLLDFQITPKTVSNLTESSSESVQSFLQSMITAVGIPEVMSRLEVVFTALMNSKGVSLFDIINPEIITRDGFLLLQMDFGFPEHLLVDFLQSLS
Assay: RTA assay using recombinant CETP (2% RTA)
Assay type: biochemical
Conditions: RTA assay in 2% human serum; read-out: IC50
How it was run: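 Compounds preincubated 1 h at 37 °C with assay cocktail (CETP buffer: 50 mM Tris pH 7.4, 100 mM NaCl, 1 mM EDTA; human HDL acceptor); transfer started with [3H]cholesteryl oleate- or [3H]triolein-labelled LDL, 60 min at 37 °C. LDL PEG-precipitated; supernatant counted by scintillation, blank-corrected; IC50 from 4-parameter sigmoidal fit of % inhibition vs DMSO control.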

Structure (SMILES): COc1ccc(CCC(=O)O)cc1-c1ccc(N2CCC2)nc1CN1C(=O)O[C@H](c2cc(C)cc(C)c2)[C@@H]1C [Example 228, 3-[3-(6-azetidin-1-yl-2-{[(4S,5R)-5-(3,5-dimethylphenyl)-4-methyl-2-oxo-1,3-oxazolidin-3-yl]methyl}pyridin-3-yl)-4-methoxyphenyl]propanoic acid]
- IC50: 47 nM

Structure (SMILES): COc1cc2c(cc1-c1ccc(N3CCC3)nc1CN1C(=O)O[C@H](c3cccc(C(F)(F)F)c3)[C@@H]1C)[C@H](CC(=O)O)CC2 [Example 229]
- IC50: 161 nM

Structure (SMILES): COc1cc2c(cc1-c1ccc(N3CCC3)nc1CN1C(=O)O[C@H](c3cc(C)cc(C)c3)[C@@H]1C)[C@H](CC(=O)O)CC2 [Example 230]
- IC50: 95 nM

Structure (SMILES): COc1cc2c(cc1-c1ccc(N3CCC3)nc1CN1C(=O)O[C@H](c3cccc(C)c3)[C@@H]1C)[C@H](CC(=O)O)CC2 [Example 231]
- IC50: 403 nM

Structure (SMILES): COc1ccc([C@@H]2C[C@H]2C(=O)O)cc1-c1ccc(N2CCC2)nc1CN1C(=O)O[C@H](c2cccc(C(F)(F)F)c2)[C@@H]1C [Example 232]
- IC50: 54 nM

Structure (SMILES): COc1ccc([C@@H]2C[C@H]2C(=O)O)cc1-c1ccc(N2CCC2)nc1CN1C(=O)O[C@H](c2cc(C)cc(C)c2)[C@@H]1C [Example 233]
- IC50: 38 nM

Structure (SMILES): COc1ccc([C@@H]2C[C@H]2C(=O)O)cc1-c1ccc(N2CCC2)nc1CN1C(=O)O[C@H](c2cccc(C)c2)[C@@H]1C [Example 234]
- IC50: 267 nM

Structure (SMILES): COc1ccc(-c2ccc(C(=O)O)cc2C)cc1-c1ccc(N2CCC2)nc1CN1C(=O)O[C@H](c2cccc(C(F)(F)F)c2)[C@@H]1C [Example 235]
- IC50: 6 nM

Structure (SMILES): COc1ccc(-c2ccc(C(=O)O)cc2C)cc1-c1ccc(N2CCC2)nc1CN1C(=O)O[C@H](c2cc(C)cc(C)c2)[C@@H]1C [Example 236]
- IC50: 13 nM

Structure (SMILES): COc1ccc(-c2ccc(C(=O)O)cc2C)cc1-c1ccc(N2CCC2)nc1CN1C(=O)O[C@H](c2cccc(C)c2)[C@@H]1C [Example 237]
- IC50: 10 nM

Structure (SMILES): COc1cc(F)c(-c2ccc(C(=O)O)cc2C)cc1-c1ccc(N2CCC2)nc1CN1C(=O)O[C@H](c2cc(C#N)cc(C(F)(F)F)c2)[C@@H]1C [Example 247]
- IC50: 44 nM

Structure (SMILES): C[C@H]1[C@@H](c2cc(C(F)(F)F)cc(C(F)(F)F)c2)OC(=O)N1Cc1nc(N2CCC2)ccc1-c1cc(CCC(=O)O)ccc1OC1CC1 [Example 248]
- IC50: 19 nM

Structure (SMILES): COc1ccc(CCC(N)=O)cc1-c1ccc(N2CCC2)nc1CN1C(=O)O[C@H](c2cc(C)cc(C)c2)[C@@H]1C [Example 249, 3-[3-(6-azetidin-1-yl-2-{[(4S,5R)-5-(3,5-dimethylphenyl)-4-methyl-2-oxo-1,3-oxazolidin-3-yl]methyl}pyridin-3-yl)-4-methoxyphenyl]propanamide]
- IC50: 105 nM

Structure (SMILES): COc1ccc([C@@H]2C[C@H]2C(N)=O)cc1-c1ccc(N2CCC2)nc1CN1C(=O)O[C@H](c2cc(C)cc(C)c2)[C@@H]1C [Example 250]
- IC50: 54 nM

Structure (SMILES): COc1ccc([C@H]2CC[C@H](C(N)=O)CC2)cc1-c1ccc(N2CCC2)nc1CN1C(=O)O[C@H](c2cccc(C(F)(F)F)c2)[C@@H]1C [Example 251]
- IC50: 24 nM

Structure (SMILES): COc1ccc([C@@H]2C[C@H]2C(N)=O)cc1-c1ccc(N2CCC2)nc1CN1C(=O)O[C@H](c2cccc(C(F)(F)F)c2)[C@@H]1C [Example 252]
- IC50: 63 nM

Structure (SMILES): COc1ccc([C@H]2CC[C@H](C(N)=O)CC2)cc1-c1ccc(N2CCC2)nc1CN1C(=O)O[C@H](c2cc(C)cc(C)c2)[C@@H]1C [Example 253, trans-4-[3-(6-azetidin-1-yl-2-{[(4S,5R)-5-(3,5-dimethylphenyl)-4-methyl-2-oxo-1,3-oxazolidin-3-yl]methyl}pyridin-3-yl)-4-methoxyphenyl]cyclohexanecarboxamide]
- IC50: 23 nM

Structure (SMILES): COc1ccc(CC(N)=O)cc1-c1ccc(N2CCC2)nc1CN1C(=O)O[C@H](c2cc(C(F)(F)F)cc(C(F)(F)F)c2)[C@@H]1C [Example 254, 2-{3-[6-azetidin-1-yl-2-({(4S,5R)-5-[3,5-bis(trifluoromethyl)phenyl]-4-methyl-2-oxo-1,3-oxazolidin-3-yl}methyl)pyridin-3-yl]-4-methoxyphenyl}acetamide]
- IC50: 15 nM

Structure (SMILES): COc1ccc([C@H]2CC[C@H](C#N)CC2)cc1-c1ccc(N2CCC2)nc1CN1C(=O)O[C@H](c2cc(C)cc(C)c2)[C@@H]1C [Example 255]
- IC50: 395 nM

Structure (SMILES): COc1ccc(CC#N)cc1-c1ccc(N2CCC2)nc1CN1C(=O)O[C@H](c2cc(C(F)(F)F)cc(C(F)(F)F)c2)[C@@H]1C [Example 256, {3-[6-azetidin-1-yl-2-({(4S,5R)-5-[3,5-bis(trifluoromethyl)phenyl]-4-methyl-2-oxo-1,3-oxazolidin-3-yl}methyl)pyridin-3-yl]-4-methoxyphenyl}acetonitrile]
- IC50: 5 nM

Structure (SMILES): COc1ccc(-c2ccc(O)c(C(C)=O)c2)cc1-c1ccc(N2CCC2)nc1CN1C(=O)O[C@H](c2cc(C(F)(F)F)cc(C(F)(F)F)c2)[C@@H]1C [Example 257, (4S,5R)-3-{[3-(3′-acetyl-4′-hydroxy-4-methoxybiphenyl-3-yl)-6-azetidin-1-ylpyridin-2-yl]methyl}-5-[3,5-bis(trifluoromethyl)phenyl]-4-methyl-1,3-oxazolidin-2-one]
- IC50: 90 nM

Structure (SMILES): COc1ccc(CO)cc1-c1ccc(N2CCC2)nc1CN1C(=O)O[C@H](c2cc(C(F)(F)F)cc(C(F)(F)F)c2)[C@@H]1C [Example 258]
- IC50: 7 nM

Structure (SMILES): COc1ccc(CCO)cc1-c1ccc(N2CCC2)nc1CN1C(=O)O[C@H](c2cc(C(F)(F)F)cc(C(F)(F)F)c2)[C@@H]1C [Example 259, (4S,5R)-3-({6-azetidin-1-yl-3-[5-(2-hydroxyethyl)-2-methoxyphenyl]pyridin-2-yl}methyl)-5-[3,5-bis(trifluoromethyl)phenyl]-4-methyl-1,3-oxazolidin-2-one]
- IC50: 4 nM

Structure (SMILES): C[C@H]1[C@@H](c2cc(C(F)(F)F)cc(C(F)(F)F)c2)OC(=O)N1Cc1nc(N2CCC2)ccc1-c1cc(CCCO)ccc1OC1CC1 [Example 260]
- IC50: 12 nM

Structure (SMILES): COCCCc1ccc(OC2CC2)c(-c2ccc(N3CCC3)nc2CN2C(=O)O[C@H](c3cc(C(F)(F)F)cc(C(F)(F)F)c3)[C@@H]2C)c1 [Example 261]
- IC50: 42 nM

Structure (SMILES): COc1ccc(CCCO)cc1-c1ccc(N2CCC2)nc1CN1C(=O)O[C@H](c2cc(C(F)(F)F)cc(C(F)(F)F)c2)[C@@H]1C [Example 264, (4S,5R)-3-({6-azetidin-1-yl-3-[5-(3-hydroxypropy)-2-methoxyphenyl]pyridin-2-yl}methyl)-5-[3,5-bis(trifluoromethyl)phenyl]-4-methyl-1,3-oxazolidin-2-one]
- IC50: 2 nM

Structure (SMILES): COc1ccc(Cc2nc[nH]n2)cc1-c1ccc(N2CCC2)nc1CN1C(=O)O[C@H](c2cc(C(F)(F)F)cc(C(F)(F)F)c2)[C@@H]1C [Example 265]
- IC50: 23 nM

Structure (SMILES): COc1ccc(Cc2nn[nH]n2)cc1-c1ccc(N2CCC2)nc1CN1C(=O)O[C@H](c2cc(C(F)(F)F)cc(C(F)(F)F)c2)[C@@H]1C [Example 266, (4S,5R)-3-({6-azetidin-1-yl-3-[2-methoxy-5-(2H-tetrazol-5-ylmethyl)phenyl]pyridin-2-yl}methyl)-5-[3,5-bis(trifluoromethyl)phenyl]-4-methyl-1,3-oxazolidin-2-one]
- IC50: 79 nM
